The text below walks through data of US20140249135A1, “PIM KINASE INHIBITORS AND METHODS OF THEIR USE” (NOVARTIS AG, priority 2007, published 2014).

SMILES strings stand for the structures.

For one test, the target named is Pim3 kinase (Homo sapiens, UniProt Q86V86). The test can be described thus: Pim3 ATP depletion assay. To be noted: read-out: IC50 (μM) PIM3. The class given is biochemical.
The target in test [1] is T1, human full length PKCE enzyme (Homo sapiens, UniProt Q02156).
T1 construct: human full length PKCE enzyme purchased from InVitrogen; purchased InVitrogen
T1 sequence (Q02156 1-737): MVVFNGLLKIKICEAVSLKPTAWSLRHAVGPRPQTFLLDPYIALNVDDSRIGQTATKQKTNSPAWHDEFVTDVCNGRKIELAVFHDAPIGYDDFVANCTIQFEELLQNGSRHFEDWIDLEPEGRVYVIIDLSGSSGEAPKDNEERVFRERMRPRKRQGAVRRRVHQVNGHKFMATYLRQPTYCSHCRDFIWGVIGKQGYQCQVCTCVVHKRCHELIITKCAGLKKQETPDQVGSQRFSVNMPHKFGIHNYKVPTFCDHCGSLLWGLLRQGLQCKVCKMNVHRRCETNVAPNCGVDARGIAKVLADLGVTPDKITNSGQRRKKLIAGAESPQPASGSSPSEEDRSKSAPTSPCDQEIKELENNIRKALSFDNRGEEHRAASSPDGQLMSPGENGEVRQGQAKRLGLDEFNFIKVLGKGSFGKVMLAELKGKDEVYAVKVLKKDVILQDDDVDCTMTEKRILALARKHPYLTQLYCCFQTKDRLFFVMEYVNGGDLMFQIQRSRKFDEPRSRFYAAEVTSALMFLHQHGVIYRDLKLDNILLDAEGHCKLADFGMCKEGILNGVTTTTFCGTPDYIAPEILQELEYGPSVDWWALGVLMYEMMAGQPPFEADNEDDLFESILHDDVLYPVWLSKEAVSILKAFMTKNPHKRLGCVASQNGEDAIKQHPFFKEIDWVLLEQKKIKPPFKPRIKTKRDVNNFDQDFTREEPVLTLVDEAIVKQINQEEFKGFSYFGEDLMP
The test can be described thus: In vitro PKCE assay. The following applies: 10 nM enzyme, 40 uM peptide substrate, 20 uM ATP, KinaseGlo Plus readout; read-out: PKCε IC50. It is filed as biochemical. In general terms: Kinase-Glo measures the ATP left after a reaction by luminescence.

The target in another test is Pim2 kinase (Homo sapiens, UniProt Q9P1W9). The test can be described thus: Pim2 ATP depletion assay.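 Also: Luciferase-based luminescent readout of ATP remaining after PIM2 phosphorylates a BAD peptide, final 5 nM enzyme, 4 µM ATP, 10 µM peptide, 2.5% DMSO, run to roughly half ATP consumption.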 The class given is biochemical. The following applies: read-out: IC50 (μM) PIM2.
The target in a further test is Pim1 kinase (Homo sapiens, UniProt P11309). The test can be described thus: Pim1 ATP depletion assay.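 Also: Luciferase-luciferin luminescence readout of residual ATP after PIM1 transfers phosphate to a peptide substrate, 40 µM ATP added, reaction run to roughly half ATP consumption.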 The class given is biochemical. The following applies: Pim1 ATP depletion assay; read-out: IC50 (μM) PIM1.
The subject of another test is HEL 92.1.7 cells. The test can be described thus: Cell proliferation assay (CellTiter-Glo), HEL 92.1.7. It is filed as cell-based. To be noted: Homo sapiens, read-out: EC50 (μM) HEL 92.1.7. The procedure:
HEL 92.1.7 cells (ATTC No. TIB-180, an erythroleukemia line derived from malignant peripheral blood), MV4-11 cells (ATCC No. CRL-9591, a human acute monocytic leukemia line) and PC3 cells (ATCC No. CRL-1435, a human prostatic adenocarcinoma line) were cultured in RPMI1640 supplemented with 10% FBS, sodium pyruvate and antibiotics. Cells were plated in the same medium at a density of 1000 cells per well into 96 well tissue culture plates, with outside wells vacant, on the day of assay.
Test compounds supplied in DMSO were diluted into DMSO at 500 times the desired final concentrations before dilution into culture media to 2 times final concentrations. Equal volumes of 2× compounds were added to the cells in 96 well plates and incubated at 37° C. for 3 days.
After 3 days plates were equilibrated to room temperature and equal volume of CellTiter-Glow Reagent (Promega) was added to the culture wells. The plates were agitated briefly and luminescent signal was measured with luminometer. The percent inhibition of the signal seen in cells treated with DMSO alone vs. cells treated with control compound was calculated and used to determine EC50 values (i.e., the concentration of a test compound that is required to obtain 50% of the maximum effect in the cells) for tested compounds, as shown in Example 763.

Sequence of Pim2 kinase (Q9P1W9 whole entry): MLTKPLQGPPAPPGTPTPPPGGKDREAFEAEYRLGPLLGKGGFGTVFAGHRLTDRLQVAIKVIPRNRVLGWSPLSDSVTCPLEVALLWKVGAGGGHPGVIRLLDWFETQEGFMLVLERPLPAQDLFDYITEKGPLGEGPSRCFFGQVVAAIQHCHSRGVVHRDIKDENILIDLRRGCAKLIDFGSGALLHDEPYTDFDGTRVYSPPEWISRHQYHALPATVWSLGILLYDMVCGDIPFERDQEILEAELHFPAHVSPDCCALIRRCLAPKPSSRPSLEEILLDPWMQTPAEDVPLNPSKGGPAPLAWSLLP
Sequence of Pim1 kinase (P11309 whole entry): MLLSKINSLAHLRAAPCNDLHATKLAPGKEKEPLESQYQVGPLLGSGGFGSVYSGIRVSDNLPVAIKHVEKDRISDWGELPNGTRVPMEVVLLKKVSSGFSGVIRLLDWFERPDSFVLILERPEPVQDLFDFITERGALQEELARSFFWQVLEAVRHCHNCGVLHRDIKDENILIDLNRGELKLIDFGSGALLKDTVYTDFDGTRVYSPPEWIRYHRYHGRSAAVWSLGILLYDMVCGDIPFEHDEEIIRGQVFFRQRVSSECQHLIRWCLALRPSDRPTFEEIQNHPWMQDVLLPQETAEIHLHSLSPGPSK

As to `Nc1ncc(Br)nc1C(=O)Nc1[nH]c(=O)ncc1-c1cccs1` [Example 142, 3-amino-6-bromo-N-[2-oxo-5-(2-thienyl)-2,3-dihydro-pyrimidin-4-yl]pyrazine-2-carboxamide], the IC50 at Pim3 kinase was less than 1 µM; in test [1], 1000 to 10000 nM; on Pim2 kinase, less than 1 µM; on Pim1 kinase, less than 1 µM. Moreover, in the test on HEL 92.1.7 cells, the EC50 lay in the range of 1 to 5 µM.
Turning to `Nc1ncc(Br)nc1C(=O)Nc1[nH]c(=O)ncc1-c1nccs1` [Example 143, 3-amino-6-bromo-N-[2-oxo-5-(1,3-thiazol-2-yl)-2,3-dihydro-pyrimidin-4-yl]pyrazine-2-carboxamide], the half-maximal inhibitory concentration (IC50) on Pim3 kinase was less than 1 µM; in test [1], more than 25000 nM; at Pim2 kinase, less than 1 µM; at Pim1 kinase, less than 1 µM. Moreover, the concentration for a half-maximal effect (EC50) with HEL 92.1.7 cells lay in the range of 1 to 5 µM.
Consider `Nc1ncc(Br)nc1C(=O)Nc1[nH]c(=O)ncc1-c1ccccn1` [Example 145, 3-amino-6-bromo-N-(2-oxo-5-pyridin-2-yl-2,3-dihydro-pyrimidin-4-yl)pyrazine-2-carboxamide], for which the IC50 at Pim3 kinase is less than 1 µM; in test [1] it was more than 25000 nM; on Pim2 kinase, less than 1 µM; at Pim1 kinase it was less than 1 µM. In the test with HEL 92.1.7 cells, the EC50 was 1 to 5 µM.
In the case of `Nc1nccnc1C(=O)Nc1[nH]c(=O)ncc1N1CCCC(C(F)(F)F)C1` (stereo not drawn) [Example 146, 3-amino-N-{2-oxo-5-[3-(trifluoromethyl)piperidin-1-yl]-2,3-dihydropyrimidin-4-yl}-pyrazine-2-carboxamide], the IC50 was less than 1 µM at Pim3 kinase, less than 1000 nM in test [1], less than 1 µM on Pim2 kinase and less than 1 µM at Pim1 kinase. Also, in the test with HEL 92.1.7 cells, the concentration for a half-maximal effect (EC50) is more than 10 µM.
Turning to `Nc1ncc(Br)nc1C(=O)Nc1[nH]c(=O)ncc1N1CCCC(C(F)(F)F)C1` (stereo not drawn) [Example 147, 3-amino-6-bromo-N-{2-oxo-5-[3-(trifluoromethyl)piperidin-1-yl]-2,3-dihydropyrimidin-4-yl}-pyrazine-2-carboxamide], the IC50 at Pim3 kinase is less than 1 µM; in test [1] it was less than 1000 nM; on Pim2 kinase it was less than 1 µM; at Pim1 kinase it was less than 1 µM. Besides, in the test with HEL 92.1.7 cells, the EC50 is 5 to 10 µM.
For `Nc1nc(N)c(C(=O)Nc2[nH]c(=O)ncc2N2CCCC(C(F)(F)F)C2)nc1Cl` (stereo not drawn) [Example 148, 3,5-diamino-6-chloro-N-{2-oxo-5-[3-(trifluoromethyl)piperidin-1-yl]-2,3-dihydropyrimidin-4-yl}pyrazine-2-carboxamide], the concentration for half-maximal inhibition (IC50) on Pim3 kinase was less than 1 µM; in test [1], 10000 to 25000 nM; on Pim2 kinase it was less than 1 µM; at Pim1 kinase it was less than 1 µM. For the same compound, the EC50 in the test on HEL 92.1.7 cells is more than 10 µM.
For the compound `Nc1ncc(Br)nc1C(=O)Nc1[nH]c(=O)ncc1N1CCC(F)CC1` [Example 150, 3-amino-6-bromo-N-[5-(4-fluoropiperidin-1-yl)-2-oxo-2,3-dihydropyrimidin-4-yl]pyrazine-2-carboxamide], the half-maximal inhibitory concentration (IC50) at Pim3 kinase is less than 1 µM; in test [1], 1000 to 10000 nM; at Pim2 kinase, less than 1 µM; at Pim1 kinase it was less than 1 µM. Besides, the concentration for a half-maximal effect (EC50) with HEL 92.1.7 cells lay in the range of 1 to 5 µM.
On to `Nc1nc(N)c(C(=O)Nc2[nH]c(=O)ncc2N2CCC(F)CC2)nc1Cl` [Example 151, 3,5-diamino-6-chloro-N-[5-(4-fluoropiperidin-1-yl)-2-oxo-2,3-dihydropyrimidin-4-yl]pyrazine-2-carboxamide], for which the IC50 on Pim3 kinase is less than 1 µM; in test [1], more than 25000 nM; at Pim2 kinase it was less than 1 µM; on Pim1 kinase, less than 1 µM. In addition, the concentration for a half-maximal effect (EC50) in the test on HEL 92.1.7 cells is more than 10 µM.
As to `Nc1ncc(Br)nc1C(=O)Nc1[nH]c(=O)ncc1N1CCCC(F)C1` (stereo not drawn) [Example 155, 3-amino-6-bromo-N-[5-(3-fluoropiperidin-1-yl)-2-oxo-2,3-dihydropyrimidin-4-yl]pyrazine-2-carboxamide], the IC50 on Pim3 kinase was less than 1 µM; in test [1] it was 1000 to 10000 nM; on Pim2 kinase it was less than 1 µM; on Pim1 kinase, less than 1 µM. The EC50 in the test with HEL 92.1.7 cells is 5 to 10 µM.
For `Nc1ncc(Br)nc1C(=O)Nc1[nH]c(=O)ncc1N1CCC(F)(F)CC1` [Example 157, 3-amino-6-bromo-N-[5-(4,4-difluoropiperidin-1-yl)-2-oxo-2,3-dihydropyrimidin-4-yl]-pyrazine-2-carboxamide], the IC50 on Pim3 kinase is less than 1 µM; in test [1], more than 25000 nM; at Pim2 kinase, less than 1 µM; at Pim1 kinase, less than 1 µM. Moreover, the concentration for a half-maximal effect (EC50) in the test on HEL 92.1.7 cells is more than 10 µM.
As for `Nc1nc(N)c(C(=O)Nc2[nH]c(=O)ncc2N2CCCC(F)C2)nc1Cl` (stereo not drawn) [Example 160, 3,5-diamino-6-chloro-N-[5-(3-fluoropiperidin-1-yl)-2-oxo-2,3-dihydropyrimidin-4-yl]pyrazine-2-carboxamide], the 50% inhibitory concentration (IC50) on Pim3 kinase is less than 1 µM; in test [1], more than 25000 nM; on Pim2 kinase, less than 1 µM; at Pim1 kinase it was less than 1 µM. Besides, the EC50 with HEL 92.1.7 cells was more than 10 µM.
With `Nc1nccnc1C(=O)Nc1cnccc1N1CCC[C@@H](N)C1` [Example 177, 3-amino-N-{4-[(3R)-3-amino-piperidin-1-yl]pyridin-3-yl}pyrazine-2-carboxamide], the IC50 on Pim3 kinase is less than 1 µM; in test [1], less than 1000 nM; at Pim2 kinase, less than 1 µM. Besides, the EC50 in the test with HEL 92.1.7 cells was more than 10 µM.
Turning to `NCC(=O)N1CCN(c2ccncc2NC(=O)c2nc(Br)cnc2N)CC1` [Example 179, 3-amino-N-{4-[4-(aminoacetyl)-piperazin-1-yl]pyridin-3-yl}-6-bromopyrazine-2-carboxamide], the IC50 at Pim3 kinase was less than 1 µM; in test [1] it was less than 1000 nM; on Pim2 kinase it was less than 1 µM; at Pim1 kinase, less than 1 µM. In addition, in the test with HEL 92.1.7 cells, the EC50 was 1 to 5 µM.
`NCC1CCCN(c2ccncc2NC(=O)c2nc(Br)cnc2N)C1` (stereo not drawn) [Example 180, 3-amino-N-{4-[3-(amino-methyl)piperidin-1-yl]pyridin-3-yl}-6-bromopyrazine-2-carboxamide]: the IC50 at Pim3 kinase was less than 1 µM; in test [1], less than 1000 nM; on Pim2 kinase it was less than 1 µM; at Pim1 kinase, less than 1 µM. Also, the EC50 with HEL 92.1.7 cells was less than 1 µM.
For `Nc1ncc(Br)nc1C(=O)Nc1[nH]c(=O)ncc1N1CCCC(N)C1` (stereo not drawn) [Example 239, 3-amino-N-[5-(3-aminopiperidin-1-yl)-2-oxo-2,3-dihydro-pyrimidin-4-yl]-6-bromo-pyrazine-2-carboxamide], the IC50 at Pim3 kinase is less than 1 µM; in test [1], less than 1000 nM; at Pim2 kinase, less than 1 µM; on Pim1 kinase it was less than 1 µM. Moreover, the concentration giving a half-maximal response (EC50) in the test on HEL 92.1.7 cells was more than 10 µM.
With `Nc1ncc(-c2ccccc2Cl)nc1C(=O)Nc1cnccc1N1CCCC(N)C1` (stereo not drawn) [Example 346, 3-amino-6-(2-chloro-phenyl)-pyrazine-2-carboxylic acid (3-amino-3,4,5,6-tetrahydro-2H-[1,4′]bipyridinyl-3′-yl)-amide], the IC50 at Pim3 kinase is less than 1 µM; in test [1], less than 1000 nM; at Pim2 kinase, less than 1 µM; at Pim1 kinase, less than 1 µM. Moreover, the EC50 with HEL 92.1.7 cells is less than 1 µM.
`Nc1ncc(-c2ccccc2OC(F)(F)F)nc1C(=O)Nc1cnccc1N1CCCC(N)C1` (stereo not drawn) [Example 347, 3-amino-6-(2-trifluoro-methoxy-phenyl)-pyrazine-2-carboxylic acid (3-amino-3,4,5,6-tetrahydro-2H-[1,4′]bi-pyridinyl-3′-yl)-amide]: the IC50 at Pim3 kinase is less than 1 µM; in test [1], less than 1000 nM; on Pim2 kinase, less than 1 µM; on Pim1 kinase, less than 1 µM. Moreover, the EC50 in the test with HEL 92.1.7 cells is less than 1 µM.

What is called IC50 is the concentration needed to halve the response being measured. The term EC50 denotes the concentration needed to bring the measured effect to its halfway point.
